Source: PubChem BioAssay AID488788 (Broad Institute, 2010)
Results filed as inconclusive are left out. Calls of active or inactive are those of the source. The rule behind the calls is not given here.

molecular target: CAAX prenyl protease 2 (Saccharomyces cerevisiae (strain ATCC 204508 / S288c)) (UniProt Q03530); assay: yeast Rce1 CAAX endoprotease inhibition – biochemical, plate reader, cherry-pick, dose response (AID 488788); settings: Rce1p enzyme activity
Sequence (Q03530 whole entry, looked up): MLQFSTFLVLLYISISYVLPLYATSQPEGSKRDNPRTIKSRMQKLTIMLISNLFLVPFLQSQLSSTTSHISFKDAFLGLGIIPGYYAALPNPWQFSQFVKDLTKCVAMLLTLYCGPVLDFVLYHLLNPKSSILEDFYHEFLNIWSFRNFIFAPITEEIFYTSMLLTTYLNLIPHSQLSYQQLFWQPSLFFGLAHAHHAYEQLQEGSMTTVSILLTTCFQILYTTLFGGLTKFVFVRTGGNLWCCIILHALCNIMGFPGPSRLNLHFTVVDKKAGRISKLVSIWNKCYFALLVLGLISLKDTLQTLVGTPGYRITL

AC50, inactive:
CC1COc2c(N3CCN(C)CC3)c(F)cc3c(=O)c(C(=O)O)cn1c23 (stereo not drawn) > 10 µM

same assay, conditions: Rce1p enzyme activity, at 10 µM (top of the series)

Activity change, negative = inhibition, inactive:
CCCCOC(=O)Nc1nc(C)c(C(=O)OCC)s1
COc1ccc(-c2cn3ccccc3n2)cc1[N+](=O)[O-]
Cc1c(C)c2ccc(OC(C)C(=O)NCCCN3CCOCC3)c(C)c2oc1=O (stereo not drawn)
O=C(O)CCCC[C@@H]1SC[C@@H]2NC(=O)N[C@@H]21
CCN1CCN(c2ccc(NC(=O)c3cccc(OCc4ccccc4)c3)cc2)CC1
C/C=C(/C)C(=O)O[C@H]1[C@@H](O)c2c(ccc3ccc(=O)oc23)OC1(C)C
COCCCNC(=O)c1cc2cc3cc(OC)ccc3nc2o1
O=C(Nc1cc(S(=O)(=O)N2CCOCC2)ccc1N1CCCC1)c1cnccn1
COC(=O)c1ccc(-c2ccc(CNCC(O)c3ccccc3)o2)cc1 (stereo not drawn)
C=C(C)C1(O)OC(=O)C=C1OC (stereo not drawn)
O=C(COC(=O)c1ccc(S(=O)(=O)N2CCCC2)cc1)NCc1ccccc1
O=C(C1CCC(=O)N(C2CC2)C1)N1CCN(c2ccccc2Cl)CC1 (stereo not drawn)
COc1cc(OC)cc(-c2ncc3ccccn23)c1
CC1=NN(c2ccccc2)C(=O)/C1=C\c1ccc(Br)s1
COc1ccc(-c2cc(C(F)(F)F)nc(SCC(=O)NCc3cnn(C)c3C)n2)cc1OC
COC(C/C=C/[C@@H](O)[C@H](C)OCc1ccccc1)OC
c1cnn(Cc2cnc(N3CCOCC3)s2)c1
O=C1NC2(C=Cc3c(ccc4ccccc34)O2)Oc2ccccc21 (stereo not drawn)
Cc1nc2c(C)cccn2c(=O)c1NC(=O)COc1ccccc1
CSc1ccc(/C=C/C(=O)OCC(=O)NC(C)C)cc1
CCOc1ccccc1CNC(=O)c1cc2occc2n1C
C=CCNc1oc(/C=C/c2ccccc2)nc1C#N
Cc1ccc(S(=O)(=O)Oc2ccc(C3C4=C(CCCC4=O)N(CCC(=O)O)C4=C3C(=O)CCC4)cc2Cl)cc1
CC(=O)NC(Cc1c[nH]c2ccccc12)C(=O)O (stereo not drawn)
COCCn1cc(C(=O)NCCN(C)C)c2c3ccccc3n(C)c2c1=O
CCCCOc1ccc(Cc2c(COCC)[nH]c(=S)[nH]c2=O)cc1
COCCCNC(=S)NCCNc1nc2cc(C)cc(C)c2cc1C#N
